Each block holds one compound with its values, some of them ahead of it.
Experiments:
[1] = test system: SK-RC-52 renal cell carcinoma cells; experiment: Flow cytometry on SK-RC-52 cells; type: cell-based; details: 100 nM
human CAIX (hCAIX) = biological target: T1, human CAIX (hCAIX) (Homo sapiens, UniProt Q16790); experiment: Fluorescence polarization (FP) affinity against hCAIX; type: binding; details: fluorescein derivatives
T1 construct: made in house; host or cells: CHO cells
Protocol: A dilution series of target proteins (i.e., PSMA, GCP3, CAIX, CAII) in the respective formulation buffer were separately prepared in a black 384-well plate (non-binding Greiner small volume plate). Test compounds functionalized with fluorescein were diluted to a concentration between 5 and 10 nM (5 μL) and incubated for 15 min with the protein (final volume corresponding to 10 µL). The fluorophore was excited at 485 nm, and anisotropy was measured at 535 nm on a Spectra Max Paradigm multimode plate reader (Tecan). The experiments were performed in triplicate. KD values measured using this FP method can differ from dissociation constants obtained by other physical methods (e.g., surface plasmon resonance, see section below).

hCAIX = biological target: T2, hCAIX (Homo sapiens, UniProt Q16790); experiment: Surface plasmon resonance (SPR) on hCAIX; type: binding; details: for Kd: 500 nM to 250 nM, CM5 chip
T2 construct: made in house; host or cells: CHO cells
Protocol: 2.14 Surface plasmon resonance (SPR)
SPR measurements were performed on a Biacore X100. Human recombinant ACP3 or CAIX were immobilized on a CM5 chip (Cytiva, #BR100012, both flow cells), reaching ~4000 RUs, using the EDC/NHS protocol provided by the manufacturer. The target protein immobilized on the reference flow cell was treated with denaturing solution (0.85% H3PO4, 10 mM NaOH, and 50 mM HCl). PBS (pH 7.4) was used as running buffer. Test compounds were injected at different concentrations in running buffer, according to a multicycle analysis with the following settings: 120 seconds contact time and 5´000 seconds (CAIX measurements) or 15´ 000 seconds (ACP3 measurements) dissociation time at a flow rate of 10 μL/min. Sensograms were plotted with GraphPad Prism (version 9, GraphPad Software) and fitted using the Biacore X100 Evaluation Software. […]
30 min at rt and washed with PBS (3 x 200 μL/well). The immobilized protein was incubated for 30 min in the dark with serial dilution of FITC-labelled compounds and washed with PBS (3 x 200 μL/well). A solution of rabbit polyclonal FITC antibody-horseradish peroxidase (anti-FITC-HRP, Abcam, #ab196968) 0.25 μg/mL in 2% milk-PBS was added to each well (100 μL/well) and incubated for additional 30 min in the dark at rt. Each well was washed with PBS 0.1% Tween (3 x 200 μL/ well) and with PBS (3 x 200 μL/ well). The substrate 3,3′,5,5′ -tetramethylbenzidine (TMB, Sigma Aldrich #T0440) was added (100 μL /well) and developed in the dark for 0.5-1 min. The reaction was stopped by adding 50 μL of an aqueous solution of H2SO4 1M. The absorbance was measured at 450 nm (reference level, 620–650 nm) with a Spark multimode microplate reader (Tecan Life Sciences). The experiments were […]

GCP3 = biological target: T3, GCP3 (Homo sapiens, UniProt Q9Y3Q0); experiment: Fluorescence polarization (FP) affinity against GCP3; type: binding; details: fluoresceinated compounds
T3 construct: Avi-tag; made in house; host or cells: CHO cells
Protocol: Hits obtained from FM‐DEL1 (A1452 and A3113) and FM‐DEL2 (A3113/B423) were re‐synthesized as stereo‐chemically pure off‐DNA compounds derivatized with a C6 linker featuring a fluorescein moiety (coupled to fluorescein isothiocyanate‐FITC) (compounds 1–6) [Figure 2E]. The binding affinity against PSMA and GCP3 (KD) of fluoresceinated compounds 1–6 was measured by fluorescence polarization (FP). […] The superiority of compound 5 (S‐configuration) in binding PSMA over compound 6 (R‐configuration) was confirmed by molecular docking studies [Figure S48, Supporting Information]. […] The presence of the sole building block A3113 on the 3‐iodo‐phenylalanine scaffold in the S‐configuration gives adequate selectivity for PSMA over GCP3. […]
(§1) Selection results were decoded with C++^[ [61] ^] and visualized using MATLAB R2019b (MathWorks). EFs were calculated by dividing the DNA sequence counts for each hit compound by the average DNA sequence count from the corresponding DEL screening. Additionally, Z‐score values were calculated following methods previously published,^[ [60] ^] as present in Supporting Information. […] Affinities of fluorescein‐bearing hits were determined by FP or ELISA measurements. […] Binding kinetics were assessed on a Biacore X100 instrument with the target protein immobilized on a CM5 chip at 4′000 RUs. […]
(§2) 2.11 Fluorescence polarization (FP) measurements with fluoresceine-labelled […]

PSMA = biological target: T4, PSMA (Homo sapiens, UniProt Q04609); experiment: Fluorescence polarization (FP) affinity against PSMA; type: binding; details: fluoresceinated compounds
T4 construct: Avi-tag; made in house; host or cells: CHO cells
Protocol: Hits obtained from FM‐DEL1 (A1452 and A3113) and FM‐DEL2 (A3113/B423) were re‐synthesized as stereo‐chemically pure off‐DNA compounds derivatized with a C6 linker featuring a fluorescein moiety (coupled to fluorescein isothiocyanate‐FITC) (compounds 1–6) [Figure 2E]. The binding affinity against PSMA and GCP3 (KD) of fluoresceinated compounds 1–6 was measured by fluorescence polarization (FP). […] The superiority of compound 5 (S‐configuration) in binding PSMA over compound 6 (R‐configuration) was confirmed by molecular docking studies [Figure S48, Supporting Information]. […] The presence of the sole building block A3113 on the 3‐iodo‐phenylalanine scaffold in the S‐configuration gives adequate selectivity for PSMA over GCP3. The addition of the second building block (B423) enhances both affinity and selectivity for the target.
as §1, with “RUs. Cell binding of fluorescent ligands was evaluated using flow cytometry against antigen‐positive and antigen‐negative (wild‐type) cancer cells. in vitro tissue uptake of ^177Lu‐labelled DOTAGA PSMA‐radioligands was measured via autoradiography.” for “RUs.”
(§3) The protein was then concentrated using Vivaspin® 20 centrifugal concentrators (30’000 Da molecular weight cutoff, Sartorius, #VS2012) and then purified by SEC or PD-10 column. The fractions were measured (absorption at 280 nm) on a Nanodrop 2000 Spectrophotometer to combine protein-containing fractions. […]
as §2

recombinant human ACP3 = biological target: T5, recombinant human ACP3 (Homo sapiens, UniProt P15309); experiment: Fluorescence polarization (FP) affinity against human ACP3; type: binding; details: PSMA ligands as negative controls
T5 construct: made in house; host or cells: CHO cells
T5 sequence (P15309 33-386): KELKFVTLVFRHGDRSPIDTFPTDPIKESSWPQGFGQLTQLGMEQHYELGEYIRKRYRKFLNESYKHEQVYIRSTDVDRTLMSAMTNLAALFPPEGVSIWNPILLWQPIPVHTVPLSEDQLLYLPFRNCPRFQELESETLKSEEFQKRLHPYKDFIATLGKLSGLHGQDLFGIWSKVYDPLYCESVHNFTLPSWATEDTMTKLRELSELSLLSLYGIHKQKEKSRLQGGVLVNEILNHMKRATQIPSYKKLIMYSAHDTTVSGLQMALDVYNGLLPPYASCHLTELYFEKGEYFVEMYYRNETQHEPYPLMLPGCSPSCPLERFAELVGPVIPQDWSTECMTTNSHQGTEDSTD
Protocol: Selection results were decoded with C++^[ [61] ^] and visualized using MATLAB R2019b (MathWorks). EFs were calculated by dividing the DNA sequence counts for each hit compound by the average DNA sequence count from the corresponding DEL screening. Additionally, Z‐score values were calculated following methods previously published,^[ [60] ^] as present in Supporting Information. Hit compounds with high EFs in the target protein selections and low EFs in the negative controls (anti‐target and streptavidin selections) were selected for hit validation activities. All compounds were synthesized using either solid‐phase peptide synthesis or solution‐phase methodologies. Affinities of fluorescein‐bearing hits were determined by FP or ELISA measurements. […] ACP3 colorimetric inhibition assay was performed with serially diluted compounds at a fixed concentration (5 mM in PBS) of para‐nitrophenyl phosphate as substrate. Binding kinetics were assessed on a Biacore X100 instrument with the target protein immobilized on a CM5 chip at 4′000 RUs. Cell binding of fluorescent ligands was evaluated using flow cytometry against antigen‐positive and antigen‐negative (wild‐type) cancer cells. in vitro tissue uptake of ^177Lu‐labelled DOTAGA PSMA‐radioligands was measured via autoradiography. Prism 9 software (GraphPad Software) was used for data analysis of FP, ELISA, PD‐10, SPR, and enzymatic assay measurements. […]
as §3
Protein dissolved in PBS or HEPES buffer was incubated for 30-60 min with 5 equiv. of EZ-LinkTM NHS-LC-Biotin (Thermo Fisher Scientific, #21336). […] The fractions were measured (absorption at 280 nm) on a Nanodrop 2000 Spectrophotometer to combine protein-containing fractions. […]
as §2

[2] = test system: HT-1080.hPSMA tumor cells; experiment: Flow cytometry on HT-1080.hPSMA cells; type: cell-based; details: 250 nM
Protocol: Selection results were decoded with C++^[ [61] ^] and visualized using MATLAB R2019b (MathWorks). EFs were calculated by dividing the DNA sequence counts for each hit compound by the average DNA sequence count from the corresponding DEL screening. Additionally, Z‐score values were calculated following methods previously published,^[ [60] ^] as present in Supporting Information. Hit compounds with high EFs in the target protein selections and low EFs in the negative controls (anti‐target and streptavidin selections) were selected for hit validation activities. All compounds were synthesized using either solid‐phase peptide synthesis or solution‐phase methodologies. Affinities of fluorescein‐bearing hits were determined by FP or ELISA measurements. […] ACP3 colorimetric inhibition assay was performed with serially diluted compounds at a fixed concentration (5 mM in PBS) of para‐nitrophenyl phosphate as substrate. Binding kinetics were assessed on a Biacore X100 instrument with the target protein immobilized on a CM5 chip at 4′000 RUs. Cell binding of fluorescent ligands was evaluated using flow cytometry against antigen‐positive and antigen‐negative (wild‐type) cancer cells. in vitro tissue uptake of ^177Lu‐labelled DOTAGA PSMA‐radioligands was measured via autoradiography. Prism 9 software (GraphPad Software) was used for data analysis of FP, ELISA, PD‐10, SPR, and enzymatic assay measurements. SPR sensograms were fitted with the Biacore X100 Evaluation Software. Flow cytometry data was processed with the FlowJo 10.4 software.
HT1080.hPSMA and PC3.hACP3 cell lines were generated by lentiviral transduction on wild type cells (HT1080.wt and PC3.wt), according to published procedures9. […]
Cancer cells were detached with an Accutase® cell detachment solution, resuspended in a standard culture medium, and transferred to falcon tubes. Cells were counted and centrifuged at 400 rcf for 3 min. […] Data were acquired halting the measurement at 10´ 000 events on a Cytoflex S flow cytometer (Beckman Coulter), and analyzed using the FlowJo software v10 (BD Biosciences). […]

T4 sequence (Q04609 whole entry): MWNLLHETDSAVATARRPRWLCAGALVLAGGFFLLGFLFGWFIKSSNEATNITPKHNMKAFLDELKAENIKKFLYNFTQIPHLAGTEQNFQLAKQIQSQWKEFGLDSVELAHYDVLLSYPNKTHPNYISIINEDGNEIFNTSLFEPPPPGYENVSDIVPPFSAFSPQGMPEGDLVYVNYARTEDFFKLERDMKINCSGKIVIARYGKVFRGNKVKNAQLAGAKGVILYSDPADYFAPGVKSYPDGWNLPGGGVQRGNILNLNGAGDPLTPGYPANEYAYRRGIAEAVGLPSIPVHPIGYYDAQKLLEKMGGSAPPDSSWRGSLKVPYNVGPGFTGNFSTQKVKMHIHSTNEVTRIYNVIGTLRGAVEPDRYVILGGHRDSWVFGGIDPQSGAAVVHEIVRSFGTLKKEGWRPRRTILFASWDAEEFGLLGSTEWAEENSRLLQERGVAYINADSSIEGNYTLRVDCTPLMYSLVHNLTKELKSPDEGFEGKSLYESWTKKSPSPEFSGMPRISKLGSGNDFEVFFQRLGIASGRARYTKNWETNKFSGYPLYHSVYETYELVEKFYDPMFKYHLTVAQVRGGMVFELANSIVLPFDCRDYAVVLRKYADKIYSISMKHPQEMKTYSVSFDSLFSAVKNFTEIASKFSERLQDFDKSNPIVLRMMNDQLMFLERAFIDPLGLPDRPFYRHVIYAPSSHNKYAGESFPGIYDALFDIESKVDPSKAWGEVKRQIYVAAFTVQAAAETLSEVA
T3 sequence (Q9Y3Q0 whole entry): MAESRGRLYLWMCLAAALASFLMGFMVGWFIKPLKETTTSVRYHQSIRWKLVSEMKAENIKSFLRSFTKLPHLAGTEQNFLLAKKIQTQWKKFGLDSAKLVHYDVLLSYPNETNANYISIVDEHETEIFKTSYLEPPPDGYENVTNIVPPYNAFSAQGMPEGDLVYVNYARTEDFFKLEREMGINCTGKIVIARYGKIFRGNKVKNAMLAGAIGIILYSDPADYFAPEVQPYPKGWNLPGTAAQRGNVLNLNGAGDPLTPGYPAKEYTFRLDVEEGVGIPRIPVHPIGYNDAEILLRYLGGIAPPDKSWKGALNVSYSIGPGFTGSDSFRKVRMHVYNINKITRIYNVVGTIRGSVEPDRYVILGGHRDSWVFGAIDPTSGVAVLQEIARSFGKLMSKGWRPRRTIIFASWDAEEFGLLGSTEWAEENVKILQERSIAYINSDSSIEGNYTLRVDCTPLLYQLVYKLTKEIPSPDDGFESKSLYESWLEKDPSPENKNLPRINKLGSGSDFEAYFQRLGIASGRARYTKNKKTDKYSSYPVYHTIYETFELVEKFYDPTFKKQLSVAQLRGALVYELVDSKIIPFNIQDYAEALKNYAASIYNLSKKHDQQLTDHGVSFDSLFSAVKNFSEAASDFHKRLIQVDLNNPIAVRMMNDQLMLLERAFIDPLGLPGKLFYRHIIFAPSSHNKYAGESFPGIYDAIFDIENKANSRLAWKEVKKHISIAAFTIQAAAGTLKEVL

Kd (human CAIX (hCAIX)): 1.85 nM
Compound: NS(=O)(=O)c1nnc(Nc2cccc(C[C@@H](NC(=O)CCC(=O)N[C@@H](CCCCNC(=S)Nc3ccc4c(c3)C(=O)OC43c4ccc(O)cc4Oc4cc(O)ccc43)C(=O)O)C(=O)NCC3(c4cccs4)CCOCC3)c2)s1 [compound 24]
binding to CAIX on the cell surface by flow cytometry [1]: bound to the antigen expressed on the surface of cancer cells

association rate (kon) on hCAIX by SPR (hCAIX): fast association rates | Kd (hCAIX): 50 nM
Compound: NS(=O)(=O)c1ccc(-c2cccc(C[C@@H](NC(=O)CCC(=O)N[C@@H](CCCCNC(=O)CC[C@H](C(=O)O)N3CCN(CC(=O)O)CCN(CC(=O)O)CCN(CC(=O)O)CC3)C(=O)O)C(=O)NCC3(c4cccs4)CCOCC3)c2)cc1 [compound 22]

Kd (GCP3): 81 nM | Kd (PSMA): 87 nM | binding to human ACP3 by FP (recombinant human ACP3): did not bind
Compound: O=C(O)CC[C@H](NC(=O)N[C@@H](Cc1ccc(I)cc1)C(=O)NCCCCCCNC(=S)Nc1ccc2c(c1)C(=O)OC21c2ccc(O)cc2Oc2cc(O)ccc21)C(=O)O [compound 1]
binding to PSMA on the cell surface by flow cytometry [2]: only compound 5 was able to bind

association rate (kon) on hCAIX by SPR (hCAIX): fast association rates | dissociation rate (koff) on hCAIX by SPR (hCAIX): slower dissociation rate | Kd (hCAIX): 13 nM
Compound: NS(=O)(=O)c1nnc(Nc2cccc(C[C@@H](NC(=O)CCC(=O)N[C@@H](CCCCNC(=O)CC[C@H](C(=O)O)N3CCN(CC(=O)O)CCN(CC(=O)O)CCN(CC(=O)O)CC3)C(=O)O)C(=O)NCC3(c4cccs4)CCOCC3)c2)s1 [compound 25]

Kd (PSMA): 99 nM | binding to human ACP3 by FP (recombinant human ACP3): did not bind
Compound: O=C(O)CC[C@H](NC(=O)N[C@@H](Cc1cccc(I)c1)C(=O)NCCCCCCNC(=S)Nc1ccc2c(c1)C(=O)OC21c2ccc(O)cc2Oc2cc(O)ccc21)C(=O)O [compound 3]
binding to PSMA on the cell surface by flow cytometry [2]: only compound 5 was able to bind

Kd (human CAIX (hCAIX)): 2.06 nM
Compound: NS(=O)(=O)c1nnc(Nc2cccc(C[C@H](NC(=O)CCC(=O)N[C@@H](CCCCNC(=S)Nc3ccc4c(c3)C(=O)OC43c4ccc(O)cc4Oc4cc(O)ccc43)C(=O)O)C(=O)NCC3(c4cccs4)CCOCC3)c2)s1 [compound 23]

Kd (human CAIX (hCAIX)): 2.46 nM
Compound: NS(=O)(=O)c1ccc(-c2cccc(C[C@H](NC(=O)CCC(=O)N[C@@H](CCCCNC(=S)Nc3ccc4c(c3)C(=O)OC43c4ccc(O)cc4Oc4cc(O)ccc43)C(=O)O)C(=O)NCC3(c4cccs4)CCOCC3)c2)cc1 [compound 20]

From publication PMC12463120, “Phenylalanine‐Based DNA‐Encoded Chemical Libraries for the Discovery of Potent and Selective Small Organic Ligands Against Markers of Cancer and Immune Cells” (Advanced Science, 2025)
